Measured values as given in US11376278B2, “Compositions and methods for treating disease” (Sulfilatec, Inc., priority 2016, dated 2022).
“And” between values parts separate entries of the source, which are not always exact repeats. Equal entries are not always repeated. “Also recorded” adds a separate entry of the source.

Columns and labels:
[1] = test system: salt sensitive Dahl rats on high salt diet; test: Survival of salt sensitive Dahl rats on high salt (8% NaCl) diet, 10 week study; assay type: in vivo, rat
Description: Control rats received AIN76A without supplemental chloride or bromide. 9 rats per study arm.
Mortality events were counted over the 10 week study. […] Thus, administration of Br^− and together increased the survival probability of 52% as compared to administration of alone (FIG. 1).

[2] = Serum Br- concentration in spontaneously hypertensive rats (SHR) after 10 weeks on diet; assay type: in vivo, rat; details: AIN-76A+Br diet
Description: (A) Serum Br^− concentrations from rats fed a daily diet over 10 weeks of “AIN-76A”, “AIN-76A+8% NaCl”, “AIN-76A+Br”, or “AIN-76A+8% NaCl+Br”. Salt sensitive Dahl rats as well as Spontaneously Hypertensive Rats (SHR) were used in these studies. The two diets containing 8% NaCl (eg. “AIN-76A+8% NaCl” and “AIN-76A+8% NaCl+Br”) were fed to Dahl rats while the remaining two diets (eg. “AIN-76A” and “AIN-76A+Br”) were fed to SHR, as indicated in panel A. Serum Br^− measurements were determined using mass spectrometry.
Rats were administered 10 mg of NaBr per kg of AIN76A diet for 10 weeks. At the end of the study, serum Br^− levels in Br-treated rats were compared to serum Br^− levels in SHR on AIN76A as well as Wistar rats on AIN76A.

[3] = test system: spontaneously hypertensive rat (SHR) model of cardiovascular disease; test: 10 week repeat dosing study in SHR disease model (organ weights, survival, urinary protein, safety); assay type: in vivo
Description: (A-B) Heart and kidney weights from 10 week repeat dosing study in SHR model. Br^− administered daily via diet, with AIN-76a as base diet. WKY served as genetic control. Both kidneys per animal weighed together. […] (C-D) Heart and kidney weights from panels A-B normalized to body weight. […] (E) Rats were administered a diet of AIN76A with or without 10 mg NaBr per kg feed (“SHR” and “SHR+Br” study arms, respectively). Survival probability was calculated between SHR rats receiving dietary Br^− and SHR rats receiving AIN76A control diet over a 10 week study period. As a second control, Wistar Kyoto (WKY) rats were fed AIN76A control diet over the same period. 8 rats per study arm.
Eight SHR animals received AIN76A diet for 10 weeks while 8 SHR animals received AIN76A supplemented with 10 mg NaBr/kg diet.

cardiac fibrosis in SHR = test: Cardiac interstitial fibrosis, Masson's Trichrome staining, SHR; assay type: in vivo, rat; details: male SHR, 10 mg NaBr per kg AIN-76a, oral daily, 10 weeks, p<0.0001
Description: (§1) AIN-76A was base diet for all animals. […] Fibrosis determined from 5 μm tissue sections stained with Masson's Trichrome. […] Approximately 25-30 images were collected and processed per animal.
Following conclusion of the in vivo study, rat hearts were formalin-fixed, paraffin-embedded, and 5 μm-thick sections were obtained for histochemical analysis.

[4] = test system: cardiac fibrosis in salt sensitive Dahl rats on a high salt diet; test: Cardiac interstitial fibrosis, Masson's Trichrome staining, Dahl rats on high salt diet; assay type: in vivo, rat; details: 300 mg NaBr per kg AIN-76a+8% NaCl, 10 weeks, p<0.0001
Description: as §1

10 week-old male SHR = test: Blood pressure and heart rate (tail cuff) one day after single IP administration in SHR; assay type: in vivo, rat; details: single IP 154.5 μg NaBr per kg
Description: (A) In 10 week-old male SHR, single administration of Br^− reduced systolic and diastolic blood pressures compared to saline control. […] (C-D) Measured values for systolic (C) and diastolic (D) blood pressure, denoting statistical significance where achieved. 154.5 μg NaBr per kg rat body weight injected via IP. All “Post Administration” data collected one day following administration. n=8 in Br Treatment group, =5 in saline control. BP & HR measured via tail cuff. *:p<0.05, t test.
The inventors next asked whether Br^− exerts any short-term activity in addition to the improved cardiac fibrosis noted after 10 weeks administration. Returning to the SHR preclinical model of disease, the inventors specifically asked whether Br^− administration modulates certain biomarkers associated with cardiovascular disease at one day post-administration. To this end, Br^− was administered to 8 SHR via intraperitoneal (IP) injection with an estimated 0.154 μg NaBr per gram body weight. For control, 8 SHR were administered saline via IP injection containing an estimated 4 ng NaBr per gram body weight. […] Without wishing to be bound by theory, embodiments as described herein can therapeutically improve certain hemodynamic and circulating biomarkers that are associated with progression of cardiovascular and kidney diseases. Moreover, Br^− achieves its cardiovascular and renal therapeutic activities in part via modulation of natriuretic peptide signaling.

dogs (epilepsy) = details: dogs that do not respond to an initial course of Br- treatment; cited from earlier work
[5] = test system: humans (sedative, anti-epilepsy effect); details: in vivo; cited from earlier work
[6] = Serum Br- concentration in Dahl rats after 10 weeks on diet (mass spectrometry); details: AIN-76A+8% NaCl+Br diet
Description: (A) Serum Br^− concentrations from rats fed a daily diet over 10 weeks of “AIN-76A”, “AIN-76A+8% NaCl”, “AIN-76A+Br”, or “AIN-76A+8% NaCl+Br”. […] The two diets containing 8% NaCl (eg. “AIN-76A+8% NaCl” and “AIN-76A+8% NaCl+Br”) were fed to Dahl rats while the remaining two diets (eg. “AIN-76A” and “AIN-76A+Br”) were fed to SHR, as indicated in panel A. Serum Br^− measurements were determined using mass spectrometry.

[7] = test system: patients with acute decompensated heart failure; details: cited from earlier work
[8] = test system: acute heart failure patients; details: acute heart failure patients in Japan; cited from earlier work
[9] = one day post administration, vs saline

Molecule: [Br-].[Na+] [Br^−, sodium bromide]
- increase of survival probability compared to high salt alone ([1]; Dahl rats, 8% NaCl + 300 mg NaBr per kg food vs 8% NaCl, 10 weeks): 52%
- survival probability ([1]; Dahl rats, AIN76A with 8% NaCl and 300 mg NaBr per kg food, 10 week study): 67%
- survival probability vs High Salt alone (log rank test) ([1]; High Salt+Br arm (AIN76A+8% NaCl+300 mg NaBr per kg feed), 9 rats per arm, p<0.001): Significantly greater survival probability
- serum Br- concentration, toxicity assessment [2]: non-toxic
- survival probability among groups ([3]; SHR+Br vs SHR and WKY, 10 week study, 8 rats per arm): no statistical difference
- absolute heart weight vs SHR on AIN-76a alone ([3]; SHR, 10 mg NaBr/kg diet daily, 10 weeks, p<0.05): significantly reduced; also recorded: Statistically significant reduction
- urinary protein levels ([3]; SHR, 10 mg NaBr/kg diet, through the end of the 10 week study): a difference that persisted
- urinary microprotein/creatinine ratio (urinary protein levels) ([3]; SHR, after one day on study diet (10 mg NaBr/kg)): significantly lower; also recorded: significantly reduced
- cardiac fibrosis (Masson's Trichrome blue staining) (cardiac fibrosis in SHR): dramatic reduction; also recorded: less cardiac fibrosis
- cardiac fibrosis (Masson's Trichrome) [4]: less cardiac fibrosis
- diastolic blood pressure (10 week-old male SHR; [9]): reduced
- systolic blood pressure (10 week-old male SHR; [9]): statistically significant reductions; also recorded: reduced
- heart rate (10 week-old male SHR; one day post, not statistically significant (p=0.052)): possible reduction
- therapeutic serum Br- for sedative effect (dogs (epilepsy)): above 25 mM
- circulating/serum Br- levels at which the anti-epilepsy effect occurs [5]: > 6 mM and 6 to 12 mM
- serum Br- concentration, toxicity assessment [6]: non-toxic

Molecule: nesiritide
- mortality [7]: increased mortality
- renal function [7]: worsening renal function

Molecule: CC[C@H](C)[C@@H]1NC(=O)[C@H](CCCNC(=N)N)NC(=O)[C@H](CC(=O)O)NC(=O)[C@H](CCSC)NC(=O)[C@H](CCCNC(=N)N)NC(=O)CNC(=O)CNC(=O)[C@H](Cc2ccccc2)NC(=O)[C@@H](NC(=O)[C@H](CO)NC(=O)[C@H](CO)NC(=O)[C@H](CCCNC(=N)N)NC(=O)[C@H](CCCNC(=N)N)NC(=O)[C@H](CC(C)C)NC(=O)[C@@H](N)CO)CSSC[C@@H](C(=O)N[C@@H](CC(N)=O)C(=O)N[C@@H](CO)C(=O)N[C@@H](Cc2ccccc2)C(=O)N[C@@H](CCCNC(=N)N)C(=O)N[C@@H](Cc2ccc(O)cc2)C(=O)O)NC(=O)CNC(=O)[C@H](CC(C)C)NC(=O)CNC(=O)[C@H](CO)NC(=O)[C@H](CCC(N)=O)NC(=O)[C@H](C)NC(=O)CNC1=O [carperitide]
- in-hospital mortality [8]: increased in-hospital mortality
